Target: T1, Protein farnesyltransferase (Homo sapiens, UniProt P49354+P49356)
Assay: (§1) Inhibition of Farnesyltransferase
Assay type: protein-complex assay
Settings: not given

`Cn1cncc1C(OCc1ccc(C#N)cc1)c1ccc(C#N)c(-c2cccc3ccccc23)c1` (stereo not given) and `Cn1cncc1C(OCc1ccc(C#N)cn1)c1ccc(C#N)c(-c2cccc3ccccc23)c1` (stereo not given) are within 1.5-fold of each other in IC50: 0.3 nM for the first, 0.4 nM for the second.

System: not listed separately
Assay: Area under plasma concentration time curve in dog upon oral administration
Settings: not given

Compared with `CCOc1cccc(-c2cc(C#N)ccc2COC(c2ccc(C#N)cc2)c2cncn2C)c1` (stereo not given), `COCc1cccc(-c2cc(C#N)ccc2COC(c2ccc(C#N)cc2)c2cncn2C)c1` (stereo not given) is 4.3-fold lower in AUC: 1130 ng·h/mL for the first, 260 ng·h/mL for the second.

Going from `Cn1cncc1C(OCc1ccc(C#N)cc1-c1cccc(Cl)c1)c1ccc(C#N)c(F)c1` (stereo not given) to `Cn1cncc1C(OCc1ccc(C#N)cc1-c1cccc(Cl)c1)c1ccc(C#N)cc1` (stereo not given), the AUC rises from 1580 ng·h/mL to 9890 ng·h/mL (6.3-fold).

Compared with `Cc1ncc(C(OCc2ccc(C#N)cc2-c2ccc3c(c2)OCO3)c2ccc(C#N)cc2)n1C` (stereo not given), `Cn1cncc1C(OCc1ccc(C#N)cc1-c1ccc2c(c1)OCO2)c1ccc(C#N)cc1` (stereo not given) is 37-fold higher in AUC: 100 ng·h/mL for the first, 3660 ng·h/mL for the second.

Compared with `Cn1cncc1C(OCc1ccc(C#N)cc1-c1ccc2c(c1)OC(F)(F)O2)c1ccc(C#N)cc1` (stereo not given), `COc1ccc(-c2cc(C#N)ccc2COC(c2ccc(C#N)cc2)c2cncn2C)cc1` (stereo not given) is 3.6-fold lower in AUC: 2760 ng·h/mL for the first, 760 ng·h/mL for the second.

Going from `Cn1cncc1C(OCc1ccc(Cl)cc1-c1ccccc1Cl)c1ccc(C#N)cc1` (stereo not given) to `Cn1cncc1C(OCc1ccc(C#N)cc1C(=O)Nc1ccccc1)c1ccc(C#N)cc1` (stereo not given), the AUC falls from 9850 ng·h/mL to 5720 ng·h/mL (1.7-fold).

For `Cn1cncc1C(OCc1ccc(C#N)cc1-c1ccc(OC(F)(F)F)cc1)c1ccc(C#N)cc1` (stereo not given), the AUC was 1530 ng·h/mL.

System: not listed separately
Assay: Half-life in dog upon oral administration
Settings: in vivo

`CCOc1cccc(-c2cc(C#N)ccc2COC(c2ccc(C#N)cc2)c2cncn2C)c1` (stereo not given) and `COCc1cccc(-c2cc(C#N)ccc2COC(c2ccc(C#N)cc2)c2cncn2C)c1` (stereo not given) are the same in half-life: 2.2 h for the first, 2.2 h for the second.

First: Cn1cncc1C(OCc1ccc(C#N)cc1-c1cccc(Cl)c1)c1ccc(C#N)c(F)c1 (stereo not given)
Second: Cn1cncc1C(OCc1ccc(C#N)cc1-c1cccc(Cl)c1)c1ccc(C#N)cc1 (stereo not given)
The half-life of the first is 1.9-fold higher: 8.7 h for the first, 4.7 h for the second.

Going from `Cc1ncc(C(OCc2ccc(C#N)cc2-c2ccc3c(c2)OCO3)c2ccc(C#N)cc2)n1C` (stereo not given) to `Cn1cncc1C(OCc1ccc(C#N)cc1-c1ccc2c(c1)OCO2)c1ccc(C#N)cc1` (stereo not given), the half-life rises from 0.9 h to 2.7 h (3-fold).

Going from `Cn1cncc1C(OCc1ccc(C#N)cc1-c1ccc2c(c1)OC(F)(F)O2)c1ccc(C#N)cc1` (stereo not given) to `COc1ccc(-c2cc(C#N)ccc2COC(c2ccc(C#N)cc2)c2cncn2C)cc1` (stereo not given), the half-life rises from 1.3 h to 3.6 h (2.8-fold).

Going from `Cn1cncc1C(OCc1ccc(C#N)cc1-c1ccc(OC(F)(F)F)cc1)c1ccc(C#N)cc1` (stereo not given) to `Cn1cncc1C(OCc1ccc(C#N)cc1C(=O)Nc1ccccc1)c1ccc(C#N)cc1` (stereo not given), the half-life rises from 6.7 h to 18.4 h (2.7-fold).

Organism: Canis familiaris
Assay: Plasma clearance in dog; Unable to calculate
Assay type: ADME, organism-based, Canis lupus familiaris
Settings: in vivo

For `Cn1cncc1C(OCc1ccc(Cl)cc1-c1ccccc1Cl)c1ccc(C#N)cc1` (stereo not given), the Clp was “Unable to calculate”.

System: not listed separately
Assay: in vivo
Settings: dog

First: Cn1cncc1C(OCc1ccc(C#N)cc1-c1cccc(Cl)c1)c1ccc(C#N)c(F)c1 (stereo not given)
Second: Cn1cncc1C(OCc1ccc(Cl)cc1-c1ccccc1Cl)c1ccc(C#N)cc1 (stereo not given)
The bioavailability of the first is higher: 71% for the first, 65% for the second.

Going from `Cc1ncc(C(OCc2ccc(C#N)cc2-c2ccc3c(c2)OCO3)c2ccc(C#N)cc2)n1C` (stereo not given) to `Cn1cncc1C(OCc1ccc(C#N)cc1C(=O)Nc1ccccc1)c1ccc(C#N)cc1` (stereo not given), the bioavailability rises from 15.2% to 96%.

Target: T1, Protein farnesyltransferase
Assay: as §1
Assay type: protein-complex assay
Settings: not given

With `CCOc1cccc(-c2cc(C#N)ccc2COC(c2ccc(C#N)cc2)c2cncn2C)c1` (stereo not given) the IC50 was 0.69 nM.

System: not listed separately
Assay: in vivo
Settings: dog, plasma

First: CCOc1cccc(-c2cc(C#N)ccc2COC(c2ccc(C#N)cc2)c2cncn2C)c1 (stereo not given)
Second: COCc1cccc(-c2cc(C#N)ccc2COC(c2ccc(C#N)cc2)c2cncn2C)c1 (stereo not given)
The clearance of the first is 2-fold higher: 16.7 mL/min/kg for the first, 8.5 mL/min/kg for the second.

`Cn1cncc1C(OCc1ccc(C#N)cc1-c1cccc(Cl)c1)c1ccc(C#N)c(F)c1` (stereo not given) and `Cn1cncc1C(OCc1ccc(C#N)cc1-c1cccc(Cl)c1)c1ccc(C#N)cc1` (stereo not given) are within 1.5-fold of each other in clearance: 8 mL/min/kg for the first, 6.67 mL/min/kg for the second.

Going from `Cc1ncc(C(OCc2ccc(C#N)cc2-c2ccc3c(c2)OCO3)c2ccc(C#N)cc2)n1C` (stereo not given) to `Cn1cncc1C(OCc1ccc(C#N)cc1-c1ccc2c(c1)OCO2)c1ccc(C#N)cc1` (stereo not given), the clearance falls from 31.2 mL/min/kg to 10 mL/min/kg (3.1-fold).

First: Cn1cncc1C(OCc1ccc(C#N)cc1-c1ccc2c(c1)OC(F)(F)O2)c1ccc(C#N)cc1 (stereo not given)
Second: COc1ccc(-c2cc(C#N)ccc2COC(c2ccc(C#N)cc2)c2cncn2C)cc1 (stereo not given)
The clearance of the first is 2.4-fold lower: 5.17 mL/min/kg for the first, 12.2 mL/min/kg for the second.

Going from `Cn1cncc1C(OCc1ccc(C#N)cc1-c1ccc(OC(F)(F)F)cc1)c1ccc(C#N)cc1` (stereo not given) to `Cn1cncc1C(OCc1ccc(C#N)cc1C(=O)Nc1ccccc1)c1ccc(C#N)cc1` (stereo not given), the clearance falls from 7.33 mL/min/kg to 3.17 mL/min/kg (2.3-fold).

Target: T1, Protein farnesyltransferase
Assay: Effective concentration required for inhibition of farnesylation of Ras protein in NIH3T3 cells
Assay type: functional, cell-based, Mus musculus
Settings: not given

`Cn1cncc1C(OCc1ccc(C#N)cc1-c1cccc2ccccc12)c1ccc(C#N)cc1` (stereo not given) and `Cn1cncc1C(OCc1ccc(C#N)cc1-c1cccc2cccnc12)c1ccc(C#N)cc1` (stereo not given) are within 1.5-fold of each other in EC50: 14 nM for the first, 15 nM for the second.

Compared with `CCOc1cccc(-c2cc(C#N)ccc2COC(c2ccc(C#N)cc2)c2cncn2C)c1` (stereo not given), `CCOc1cccc(-c2cc(Cl)ccc2COC(c2ccc(C#N)cc2)c2cncn2C)c1` (stereo not given) is 24-fold higher in EC50: 0.19 nM for the first, 4.6 nM for the second.

First: Cn1cncc1C(OCc1ccc(Cl)cc1-c1cccc(Cl)c1)c1ccc(C#N)cc1 (stereo not given)
Second: COc1cccc(-c2cc(Cl)ccc2COC(c2ccc(C#N)cc2)c2cncn2C)c1 (stereo not given)
The EC50 of the first is 3.9-fold higher: 390 nM for the first, 100 nM for the second. The second is the more potent here.

Going from `Cn1cncc1C(OCc1ccc(C#N)cc1-c1cccc(Cl)c1)c1ccc(C#N)c(F)c1` (stereo not given) to `Cn1cncc1C(OCc1ccc(C#N)cc1-c1cccc(Cl)c1)c1ccc(C#N)cc1F` (stereo not given), the EC50 falls from 36 nM to 3.3 nM (11-fold).

Going from `Cc1ncc(C(OCc2ccc(C#N)cc2-c2ccc3c(c2)OCO3)c2ccc(C#N)cc2)n1C` (stereo not given) to `Cn1cncc1C(OCc1ccc(C#N)cc1-c1ccc2c(c1)OCO2)c1ccc(C#N)cc1` (stereo not given), the EC50 falls from 9.8 nM to less than 1 nM. The second is the more potent here.

Compared with `CCOc1ccc(-c2cc(C#N)ccc2COC(c2ccc(C#N)cc2)c2cncn2C)cc1` (stereo not given), `COc1ccc(-c2cc(C#N)ccc2COC(c2ccc(C#N)cc2)c2cncn2C)cc1` (stereo not given) is 1.9-fold lower in EC50: 13 nM for the first, 7 nM for the second.

Going from `Cn1cncc1C(OCc1ccc(C#N)cc1-c1ccc2c(c1)OC(F)(F)O2)c1ccc(C#N)cc1` (stereo not given) to `Cn1cncc1C(OCc1ccc(C#N)cc1-c1ccc(F)c(F)c1)c1ccc(C#N)cc1` (stereo not given), the EC50 rises from 9.1 nM to 96 nM (11-fold). The first is the more potent here.

`Cn1cncc1C(OCc1ccc(C#N)cc1NCc1cc(F)cc(F)c1)c1ccc(C#N)cc1` (stereo not given) and `Cn1cncc1C(OCc1ccc(C#N)cc1NS(=O)(=O)c1cccs1)c1ccc(C#N)cc1` (stereo not given) cannot be ordered by EC50: 150 nM for the first, greater than 100 nM for the second.

Compared with `Cn1cncc1C(OCc1ccc(C#N)cc1-c1cccc(Cl)c1)c1ccc(C(F)(F)F)cc1` (stereo not given), `Cn1cncc1C(OCc1ccc(C#N)cc1-c1cccc(Cl)c1)c1ccc(C#N)cc1` (stereo not given) is lower in EC50: greater than 100 nM for the first, 5.2 nM for the second. The second is the more potent here.

Going from `Cn1cncc1C(OCc1ccc(Cl)cc1-c1ccc(Cl)cc1)c1ccc(C#N)cc1` (stereo not given) to `Cn1cncc1C(OCc1ccc(Cl)cc1-c1ccccc1Cl)c1ccc(C#N)cc1` (stereo not given), the EC50 rises from 525 nM to greater than 1000 nM.

`COCC(=O)Nc1ccc(COC(c2ccc(C#N)cc2)c2cncn2C)c(-c2cccc(OC)c2)c1` (stereo not given) and `COC(=O)c1ccc(COC(c2ccc(C#N)cc2)c2cncn2C)c(-c2cccc(OC)c2)c1` (stereo not given) cannot be ordered by EC50: greater than 100 nM for the first, greater than 100 nM for the second.

`COc1cccc(-c2cc(N)ccc2COC(c2ccc(C#N)cc2)c2cncn2C)c1` (stereo not given) and `COc1cccc(-c2cc(C=O)ccc2COC(c2ccc(C#N)cc2)c2cncn2C)c1` (stereo not given) cannot be ordered by EC50: greater than 100 nM for the first, greater than 100 nM for the second.

Compared with `COc1cccc(-c2cc([N+](=O)[O-])ccc2COC(c2ccc(C#N)cc2)c2cncn2C)c1` (stereo not given), `COc1cccc(-c2cc(C#N)ccc2COC(c2ccc(Cl)cc2)c2cncn2C)c1` (stereo not given) is 22-fold higher in EC50: 0.81 nM for the first, 17.7 nM for the second.

Compared with `Cn1cncc1C(OCc1ccc(C#N)cn1)c1ccc(C#N)c(-c2cccc3ccccc23)c1` (stereo not given), `Cn1cncc1C(OCc1ccc(C#N)cc1NS(=O)(=O)c1cccc2ccccc12)c1ccc(C#N)cc1` (stereo not given) is higher in EC50: 8 nM for the first, greater than 100 nM for the second.

First: COCc1cccc(-c2cc(C#N)ccc2COC(c2ccc(C#N)cc2)c2cncn2C)c1 (stereo not given)
Second: Cc1ccc(-c2cc(C#N)ccc2COC(c2ccc(C#N)cc2)c2cncn2C)cc1 (stereo not given)
The EC50 of the first is lower: 1 nM for the first, greater than 100 nM for the second.

`COc1cccc(-c2cc(C#N)ccc2COC(c2ccc(C#N)c(Cl)c2)c2cncn2C)c1` (stereo not given) and `COc1cccc(-c2cc(NS(C)(=O)=O)ccc2COC(c2ccc(C#N)cc2)c2cncn2C)c1` (stereo not given) cannot be ordered by EC50: 130 nM for the first, greater than 100 nM for the second.

First: Cn1cncc1C(OCc1ccc(C#N)cc1-c1ccc(OC(F)(F)F)cc1)c1ccc(C#N)cc1 (stereo not given)
Second: Cc1ccc(S(=O)(=O)Nc2cc(C#N)ccc2COC(c2ccc(C#N)cc2)c2cncn2C)cc1 (stereo not given)
The EC50 of the first is 2.5-fold lower: 5.1 nM for the first, 13 nM for the second. The first is the more potent here.

First: Cn1cncc1C(OCc1ccc(C#N)cc1C(=O)Nc1ccccc1)c1ccc(C#N)cc1 (stereo not given)
Second: Cn1cncc1C(OCc1ccc(C#N)cc1C(=O)Nc1cccc(Cl)c1)c1ccc(C#N)cc1 (stereo not given)
The EC50 of the first is 3.4-fold higher: 12 nM for the first, 3.5 nM for the second.

`N#Cc1ccc(C(OCc2ccc(C#N)cc2-c2ccc3c(c2)OCO3)c2cnccc2Cl)cc1` (stereo not given) and `Cc1ncc(C(OCc2ccc(C#N)cc2-c2cccc(Cl)c2)c2ccc(C#N)cc2)n1C` (stereo not given) cannot be ordered by EC50: greater than 100 nM for the first, 154 nM for the second.

Target: Geranylgeranyl transferase type I (Homo sapiens, UniProt P49354+P53609)
Assay: Inhibition of Geranylgeranyl transferase type I
Assay type: protein-complex assay
Settings: not given

`Cn1cncc1C(OCc1ccc(C#N)cc1)c1ccc(C#N)c(-c2cccc3ccccc23)c1` (stereo not given) and `Cn1cncc1C(OCc1ccc(C#N)cn1)c1ccc(C#N)c(-c2cccc3ccccc23)c1` (stereo not given) are within 1.5-fold of each other in IC50: 18 nM for the first, 24 nM for the second.

System: Canis familiaris
Assay: Half-life in dog upon oral administration; Unable to calculate
Assay type: ADME, organism-based, Canis lupus familiaris
Settings: in vivo

For `Cn1cncc1C(OCc1ccc(Cl)cc1-c1ccccc1Cl)c1ccc(C#N)cc1` (stereo not given), the T1/2 was “Unable to calculate”.

— ChEMBL document CHEMBL1149187, “Design, synthesis, and biological activity of 4-[(4-cyano-2-arylbenzyloxy)-(3-methyl-3H-imidazol-4-yl)methyl]benzonitriles as potent and selective farnesyltransferase inhibitors” (J Med Chem, 2004)
